According to patent publication US12233129B2, “Methods and compositions for the treatment of cancer” (priority 2019, dated 2025):
Entries after “also recorded” stand apart in the source; their conditions may differ. Read-outs that look alike come from different tables or passages of the source.

Columns and labels:
SW480 = assay: Cell detachment assay and live cell imaging; assay type: cell-based, human; conditions: mutant p53
Experimental: (§1) Based on the above results, we then hypothesized that VTD-induced UBXN2A leads to apoptosis and cell death mimicking the Tet-on induced-UBXN2A model (FIG. 15). As cell detachment and cell shrinking are ubiquitous aspects of apoptosis, we examined these features in four cancer cell lines: HCT116 (WT-p53), LoVo (WT-p53), SW-480 (mutant-p53), and U2OS (WT-p53), all in the presence of VTD (FIG. 17, S4).
(§2) The viability of cells was calculated as % of control.
(§3) FIG. 17: Induction of apoptosis and in vitro cytotoxicity by VTD in a human cancer cell line with different statuses of p53 and mot-2. (A-D) Cells were treated with VTD for 24, 48, and 72 hours. After incubation, dead cells were washed off, and the remaining attached cells were calculated by counting in five random fields using the Axiovert 200 M inverted microscope and AxioVision software (cell detachment assay). The % of cells attached was calculated as % of control cells. […] The data is shown as mean+SEM of three independent experiments (n=3, *p<0.05). (E-K) Cells were plated for 5 days, and the colonies of cells were treated with different concentration of VTD. The colonies of viable cells were stained with crystal violet dye and absorbance, as an index of measurement of colony forming units, was read at 562 nm (clonogenic survival assay). VTD induced a significant decrease in cell viability in a p53- and differentiation grade manner in HCT-116 poorly differentiated cells (E), HCT 116 p53+/−(F), HCT-116 p53−/− (G), LoVo well-differentiated cells (H), SW-480 (K), and two non-colon cancer cells: HepG2 (I) and U2OS (J). The data is shown as mean+SEM of three independent experiments (n=3, *p<0.05). (L) Determination of endogenous levels of mot-2, UBXN2A, HSC70, and p53 proteins in various cancer cell lines using WB. (M) HCT-116 cells were treated with VTD (10 and 30 μM) and cytoplasmic and nuclear fractions were subjected to WB. HSC70 and Orc-2 antibodies were used as cytoplasmic and nuclear markers, respectively.

LoVo [1] = assay: Cell detachment assay and live cell imaging; assay type: cell-based, human; conditions: dose- and time-dependent
Experimental: as §1, §2, §3

HCT-116 [2] = assay: Cell detachment assay and live cell imaging; assay type: cell-based, human; conditions: dose- and time-dependent
Experimental: as §1, §2, §3

U2OS = assay: Cell detachment assay and live cell imaging; assay type: cell-based, human; conditions: dose- and time-dependent
Experimental: as §1, §2, §3

LoVo [3] = tested on: LoVo
Experimental: (§4) Besides the cell viability assay, we decided to measure the apoptotic activity in the above combination therapy.
(§5) Cells were treated with 5-FU (5-100 μM) and etoposide (1-50 μM) along with VTD (30 and 100 μM respectively) in two different set of experiments for 24 hours.
(§6) An MTT (3[4, 5-dimethylthiazol-2-yl]-2, 5-diphenyltetrazolium bromide) assay was performed to measure the viability of cells. Briefly, cells were seeded at a density of 10×10^3 cells per well in phenol-red free growth media. After 24 hours, cells were treated with various concentrations of VTD±5-FU or etoposide. After incubation, an MTT dye was added to the cells for 2-4 hours. The absorbance of samples was measured at 630 nm using an EXL808 absorption spectrophotometer (Biotek, Winooski). The viability of cells was calculated as % of control. Cell detachment and clonogenic survival assays were conducted as previously described. Early apoptosis, caspase-3, cleaved PARP and Sytox Red (Life Technology, NY, USA) were measured by the Accuri C6 flow cytometer system (BD Pharmingen, MD, USA).[54]
(§7) (A-H) (A-C) HCT-116 and (D-F) LoVo were treated with VTD (10-300 μM) for 24, 48, and 72 hours. A suboptimal dose of Etoposide (ETO) ([…]) was added to cells for the last 24 hours only. The viability of cells was determined as % of control (untreated cells) using an MTT assay. […] (G-H) HCT-116 (G) and LoVo (H) cells were treated with VTD (10-200 μM) and a suboptimal dose of ETO (5 μM) for 24 hours. Cells were then stained with Annexin V apoptotic marker. […] (I-L) HCT-116 and LoVo cells were treated with different doses of 5-FU (5-100 μM, I-J) and ETO (1-50 μM, K-L) along with VTD (30 μM and 100 μM respectively) for 24 hours.

HCT-116 [4] = tested on: HCT-116
Experimental: as §4, §5, §6, §7

Rictor = assay: Flow cytometry with anti-Rictor antibody in SW480 cells; assay type: cell-based, human; conditions: VTD 5 days (semi-chronic treatment), N=3
Experimental: In panels A-E, SW480 cells were treated with VTD for 5 days (a semi-chronic treatment) and the cells were collected and subjected to flow-cytometry analysis using anti-Rictor antibody.

LoVo [5] = assay: Annexin V early apoptosis, VTD plus etoposide; assay type: cell-based, human; conditions: VTD 10-200 μM plus etoposide 5 μM, 24 hours
Experimental: as §2
(§8) Cells were then stained with Annexin V apoptotic marker.

HCT-116 [6] = assay: Annexin V early apoptosis, VTD plus etoposide; assay type: cell-based, human; conditions: VTD 10-200 μM plus etoposide 5 μM, 24 hours
Experimental: as §2, §8

[7] = 5-FU 5-100 μM along with VTD 100 μM, 24 hours
[8] = VTD 10-300 μM 24, 48, 72 hours plus suboptimal etoposide 5 μM for the last 24 hours
[9] = etoposide 1-50 μM along with VTD 30 μM, 24 hours
[10] = higher concentrations of VTD with etoposide 5 μM
[11] = low doses of VTD with etoposide, antagonistic

With `COc1ccc(C(=O)O[C@H]2CC[C@@]3(C)[C@@H]4CC[C@H]5[C@]6(O)C[C@H](O)[C@@]7(O)[C@@H](CN8C[C@@H](C)CC[C@H]8[C@@]7(C)O)[C@]6(O)C[C@@]53O[C@]24O)cc1OC` [VTD, Veratridine] the “cell detachment (% of cells attached)” value (SW480; 24, 48 and 72 hours) was “no effect on cell detachment; also recorded: not with mutant p53”, the “cell shrinking and rounding (live cell imaging)” value (from here on “cell shrinking and rounding”) (SW480) was “remain unchanged” and the “cell detachment (% of cells attached)” value (LoVo [1]; 24, 48 and 72 hours) was “significantly increases cell detachment; also recorded: significantly decreases the % of cells attached”. For the same molecule, the “cell shrinking and rounding” value (LoVo [1]) was “induces cell shrinking and rounding”, the “cell detachment (% of cells attached)” value (HCT-116 [2]; 24, 48 and 72 hours) was “significantly increases cell detachment; also recorded: significantly decreases the % of cells attached” and the “cell shrinking and rounding” value (HCT-116 [2]) was “induces cell shrinking and rounding”. For the same molecule, the “cell detachment (% of cells attached)” value (U2OS; 24, 48 and 72 hours) was “significantly increases cell detachment; also recorded: significantly decreases the % of cells attached”, the “cell shrinking and rounding” value (U2OS) was “induces cell shrinking and rounding” and the “combination index (CI)” value (LoVo [3]; 5-FU 5 μM with 100 μM VTD) was 0.32. The “cell viability (MTT), 5-FU effect enhanced by VTD” value (LoVo [3]; [7]) was “significantly enhanced the 5-FU and etoposide effects on cell viability”, the “cell viability (MTT), combination” value (LoVo [3]; [8]) was “significantly potentiates the cytotoxic effect of VTD” and the “combination index (CI)” value (LoVo [3]; etoposide 1 μM with 30 μM VTD) was 0.275. For the same molecule, the “VTD concentration at which VTD and etoposide start to act synergistically” value (LoVo [3]; etoposide 5 μM) was 100 µM, the “cell viability (MTT), etoposide effect enhanced by VTD” value (LoVo [3]; [9]) was “significantly enhanced the 5-FU and etoposide effects on cell viability” and the “combination index (CI)” value (LoVo [3]; [10]) was ≤ 0.4. The “combination index (CI)” value (LoVo [3]; [11]) was > 1, the “combination index (CI)” value (HCT-116 [4]; 5-FU 75 μM combined with 100 μM VTD) was 0.165 and the “combination index (CI)” value (HCT-116 [4]; 5-FU 100 μM combined with 100 μM VTD) was 0.109. For the same molecule, the “cell viability (MTT), 5-FU effect enhanced by VTD” value (HCT-116 [4]; [7]) was “significantly enhanced the 5-FU and etoposide effects on cell viability”, the “combination index (CI)” value (HCT-116 [4]; VTD 30 μM with etoposide 5 μM) was 0.516 and the “cell viability (MTT), combination” value (HCT-116 [4]; [8]) was “significantly potentiates the cytotoxic effect of VTD”. For the same molecule, the “cell viability (MTT), etoposide effect enhanced by VTD” value (HCT-116 [4]; [9]) was “significantly enhanced the 5-FU and etoposide effects on cell viability”, the “combination index (CI)” value (HCT-116 [4]; [10]) was ≤ 0.4 and the “combination index (CI)” value (HCT-116 [4]; [11]) was > 1. For the same molecule, the “level of Rictor proteins” value (Rictor) was “significantly decreases Rictor proteins”, the “early apoptosis (Annexin V)” value (LoVo [5]) was “significantly increased the early apoptosis” and the “early apoptosis (Annexin V)” value (HCT-116 [6]) was “significantly increased the early apoptosis”.
